Target: T1, human CCR6 (Homo sapiens, UniProt P51684)
T1 construct: expressed in transfected cells; host or cells: Ba/F3 cells (murine pro-B line), hCCR6-transfected, CMV promoter, sodium butyrate induction
T1 sequence (P51684 1-374): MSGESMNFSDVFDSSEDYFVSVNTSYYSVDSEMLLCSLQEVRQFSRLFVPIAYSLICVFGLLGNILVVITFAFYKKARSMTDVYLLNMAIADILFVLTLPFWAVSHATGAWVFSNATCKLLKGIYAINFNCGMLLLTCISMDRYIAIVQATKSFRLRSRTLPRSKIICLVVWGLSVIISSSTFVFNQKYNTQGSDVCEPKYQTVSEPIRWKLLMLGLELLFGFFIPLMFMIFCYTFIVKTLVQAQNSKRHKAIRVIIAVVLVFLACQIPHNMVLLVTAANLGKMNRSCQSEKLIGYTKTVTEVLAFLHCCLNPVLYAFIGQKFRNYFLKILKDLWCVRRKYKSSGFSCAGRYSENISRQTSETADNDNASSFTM
Assay: Migration (chemotaxis) assay, hCCR6-transfected Ba/F3 cells toward CCL20
Type: cell-based
Settings: hCCR6-transfected Ba/F3 cells in human serum; recombinant human CCL20 10 nM; 37° C. 45 minutes; read-out: Potency (IC50 value in the migration assay)
Excerpt: A chemotaxis assay can be used to determine the efficacy of potential receptor antagonists at blocking the migration mediated through chemokine receptors, such as CCR6. This assay is routinely performed using the ChemoTX® microchamber system with a 5-μm pore-sized polycarbonate membrane. Chemokine receptor-expressing cells are required for such an assay. In this case, Ba/F3 cells (Palacios et al., Nature, 309:126, 1984) transfected with the gene for human CCR6 under control of the CMV promotor were used. To begin such an assay, hCCR6-transfected Ba/F3 cells are first grown for 24 hr in medium supplemented with sodium butyrate, which increases CCR6 transcription via the CMV promotor. The prepared Ba/F3 cells, are collected by centrifugation at 400×g at room temperature, then suspended at 4 million/ml in human serum. The compound being tested is serially diluted from a maximum final concentration of 10 μM (or an equivalent volume of its solvent (DMSO)) and is then added to the cell/serum mixture. Separately, recombinant human CCL20 (MIP-3α/LARC) at its EC50 concentration (10 nM) is placed in the lower wells of the ChemoTX® plate. The 5-μm (pore size) polycarbonate membrane is placed onto the plate, and 20 μL of the cell/compound mixture is transferred onto each well of the membrane. The plates are incubated at 37° C. for 45 minutes, after which the polycarbonate membranes are removed and 5 μl of the DNA-intercalating dye CyQUANT (Invitrogen, Carlsbad, CA) is added to the lower wells. The amount of fluorescence, corresponding to the number of migrated cells, is measured using a Spectrafluor Plus plate reader (TECAN, San Jose, CA).

Structure (SMILES) | IC50 [nM]
CC1(C)NC(=O)c2ncc(-c3ccc(S(=O)(=O)N4CCC(Nc5ccc(C(F)(F)F)cn5)CC4)cc3)cc21 [Example 1.009] | < 5
O=C1NC(=O)C2(CCCN(c3ccc(S(=O)(=O)N4CCC(Nc5ccc(C(F)(F)F)cn5)CC4)cc3)C2)N1 (stereo not shown) [Example 1.224] | 100 to 10000
NC(=O)NCC1CCN(c2ccc(S(=O)(=O)N3CCC(Nc4ccc(C(F)(F)F)cn4)CC3)cc2)CC1 [Example 1.146] | < 5
O=C1N(CCO)c2ncc(-c3ccc(S(=O)(=O)N4CCC(Nc5ccc(C(F)(F)F)cn5)CC4)cc3)cc2C12CCOCC2 [Example 1.020] | 5 to 100
NC(=O)c1c[nH]c2ccc(-c3ccc(S(=O)(=O)N4CCC(Nc5ccc(C(F)(F)F)cn5)CC4)cc3)cc12 [Example 1.080] | 5 to 100
CS(=O)(=O)NCC1CCN(c2ccc(S(=O)(=O)N3CCC(Nc4ccc(C(F)(F)F)cn4)CC3)cc2)CC1 [Example 1.141] | 5 to 100
O=c1[nH]c(=O)c2ccc(-c3ccc(S(=O)(=O)N4CCC(Nc5ccc(C(F)(F)F)cn5)CC4)cc3)cc2[nH]1 [Example 1.057] | 5 to 100
O=C1COc2cc(-c3ccc(S(=O)(=O)N4CCC(Nc5ccc(C(F)(F)F)cn5)CC4)cc3)ccc2N1 [Example 1.074] | 5 to 100
O=S(=O)(c1ccc(N2CCC[C@H](O)C2)cc1)N1CCC(Nc2ccc(C(F)(F)F)cn2)CC1 [Example 1.198] | 5 to 100
CC(=O)NC1CC2(C1)CN(c1ccc(S(=O)(=O)N3CCC(Nc4ccc(C(F)(F)F)cn4)CC3)cc1)C2 [Example 1.163] | 5 to 100
N#Cc1n[nH]c2ccc(-c3ccc(S(=O)(=O)[C@H]4CC[C@H](Nc5ccc(C(F)(F)F)cn5)CC4)cc3)cc12 [Example 1.072] | < 5
NC(=O)[C@H]1[C@@H]2CN(c3ccc(S(=O)(=O)N4CCC(Nc5ccc(C(F)(F)F)cn5)CC4)cc3)C[C@@H]21 [Example 1.162] | 100 to 10000
O=C1NCc2ncc(-c3ccc(S(=O)(=O)N4CCC(Nc5ccc(C(F)(F)F)cn5)CC4)cc3)cc21 [Example 1.010] | 5 to 100
Nc1n[nH]c2ccc(-c3ccc(S(=O)(=O)N4CCC(Nc5ccc(C(F)(F)F)cn5)CC4)cc3)cc12 [Example 1.112] | < 5
NC(=O)N1Cc2ccc(-c3ccc(S(=O)(=O)N4CCC(Nc5ccc(C(F)(F)F)cn5)CC4)cc3)cc2C1 [Example 1.054] | < 5
NC(=O)N1CCN(c2ccc(S(=O)(=O)N3CCC(Nc4ccc(C(F)(F)F)cn4)CC3)cc2)CC1 [Example 1.204] | 5 to 100
N#Cc1cn(CCO)c2ncc(-c3ccc(S(=O)(=O)N4CCC(Nc5ccc(C(F)(F)F)cn5)CC4)cc3)cc12 [Example 1.029] | < 5
CC(=O)N1CCC(c2ccc(S(=O)(=O)N3CCC(Nc4ccc(C(F)(F)F)cn4)CC3)cc2)CC1 [Example 1.184] | 5 to 100
N=[S@](=O)(c1ccc(-c2ccc3[nH]cnc3c2)cc1)N1CCC(Nc2ccc(C(F)(F)F)cc2)CC1 [Example 1.104] | 5 to 100
NC(=O)NC1CCN(c2ccc(S(=O)(=O)N3CCC(Nc4ccc(C(F)(F)F)cn4)CC3)cc2)CC1 [Example 1.205] | 5 to 100
N#Cc1cc2cc(-c3ccc(S(=O)(=O)N4CCC(Nc5ccc(C(F)(F)F)cn5)CC4)cc3)ccc2[nH]1 [Example 1.113] | 5 to 100
O=C1NCCCC12CCN(c1ccc(S(=O)(=O)N3CCC(Nc4ccc(C(F)(F)F)cn4)CC3)cc1)CC2 [Example 1.165] | < 5
N=[S@](=O)(c1ccc(-c2ccc3oc(N)nc3c2)cc1)N1CCC(Nc2ccc(C(F)(F)F)cc2)CC1 [Example 1.105] | 5 to 100
O=C1NCc2cc(-c3ccc(S(=O)(=O)N4CCC(Nc5ccc(C(F)(F)F)cn5)CC4)cc3)ccc21 [Example 1.117] | < 5
O=S(=O)(c1ccc(N2CCC(O)CC2)cc1)N1CCC(Nc2ccc(C(F)(F)F)cn2)CC1 [Example 1.156] | 5 to 100
NC(=O)c1cnc2ccc(-c3ccc(S(=O)(=O)N4CCC(Nc5ccc(C(F)(F)F)cn5)CC4)cc3)cn12 [Example 1.085] | < 5
N#Cc1cn(CCN)c2ncc(-c3ccc(S(=O)(=O)N4CCC(Nc5ccc(C(F)(F)F)cn5)CC4)cc3)cc12 [Example 1.013] | 5 to 100
CC1(C)Oc2cc(-c3ccc(S(=O)(=O)N4CCC(Nc5ccc(C(F)(F)F)cn5)CC4)cc3)ccc2NC1=O [Example 1.019] | 5 to 100

Structure (SMILES) | IC50 [nM]
O=S(=O)(c1ccc(N2CCC(O)CC2)c(F)c1)N1CCC(Nc2ccc(C(F)(F)F)cn2)CC1 [Example 1.208] | 100 to 10000
O=C1Cc2cc(-c3ccc(S(=O)(=O)N4CCC(Nc5ccc(C(F)(F)F)cn5)CC4)cc3)ncc2N1 [Example 1.043] | 100 to 10000
CC(=O)N1CCCN(c2ccc(S(=O)(=O)N3CCC(Nc4ccc(C(F)(F)F)cn4)CC3)cc2)CC1 [Example 1.201] | 100 to 10000
Nc1nc(=O)c2cc(-c3ccc(S(=O)(=O)N4CCC(Nc5ccc(C(F)(F)F)cn5)CC4)cc3)ccc2[nH]1 [Example 1.015] | < 5
O=S(=O)(c1ccc(N2CC[C@@H](O)C2)cc1)N1CCC(Nc2ccc(C(F)(F)F)cn2)CC1 [Example 1.186] | 100 to 10000
O=S(=O)(c1ccc(-c2ccc3[nH]nc(C(F)(F)F)c3c2)cc1)N1CCC(Nc2ccc(C(F)(F)F)cn2)CC1 [Example 1.087] | 5 to 100
CS(=O)(=O)N1CCCC(c2ccc(S(=O)(=O)N3CCC(Nc4ccc(C(F)(F)F)cn4)CC3)cc2)C1 (stereo not shown) [Example 1.179] | 5 to 100
NC(=O)C1(C2CCN(c3ccc(S(=O)(=O)N4CCC(Nc5ccc(C(F)(F)F)cn5)CC4)cc3)CC2)CC1 [Example 1.124] | 5 to 100
NC(=O)N1CCC2(CCN(c3ccc(S(=O)(=O)N4CCC(Nc5ccc(C(F)(F)F)cn5)CC4)cc3)C2)C1 (stereo not shown) [Example 1.175] | 5 to 100
O=S(=O)(c1ccc(-c2ccc3c(c2)CCC3)cc1)N1CCC(Nc2ccc(C(F)(F)F)cn2)CC1 [Example 1.120] | 100 to 10000
CC(C)(C)OC(=O)N[C@@H]1CCCN(c2ccc(S(=O)(=O)N3CCC(Nc4ccc(C(F)(F)F)cn4)CC3)cc2)C1 [Example 1.213] | 100 to 10000
NC(=O)C(=O)N1CCN(c2ccc(S(=O)(=O)N3CCC(Nc4ccc(C(F)(F)F)cn4)CC3)cc2)CC1 [Example 1.173] | 5 to 100
O=S(=O)(c1ccc(-c2ccc3[nH]nnc3c2)cc1)N1CCC(Nc2ccc(C(F)(F)F)cn2)CC1 [Example 1.109] | 100 to 10000
O=C1Nc2ccc(-c3ccc(S(=O)(=O)N4CCC(Nc5ccc(C(F)(F)F)cn5)CC4)cc3)cc2C12CCNCC2 [Example 1.028] | 5 to 100
CC(C)(C)OC(=O)NCCn1cc(C#N)c2cc(-c3ccc(S(=O)(=O)N4CCC(Nc5ccc(C(F)(F)F)cn5)CC4)cc3)cnc21 [Example 1.014] | < 5
O=C1CN(c2ccc(S(=O)(=O)N3CCC(Nc4ccc(C(F)(F)F)cn4)CC3)cc2)CCN1 [Example 1.211] | 100 to 10000
O=S(=O)(c1ccc(-c2ccc3c(c2)OCCO3)cc1)N1CCC(Nc2ccc(C(F)(F)F)cn2)CC1 [Example 1.032] | 100 to 10000
NC(=O)C1CCN(c2ccc(S(=O)(=O)N3CCC(Nc4ccc(C(F)(F)F)cn4)CC3)cc2)CC1 [Example 1.228] | 5 to 100
O=S(=O)(c1ccc(C2CCCNC2)cc1)N1CCC(Nc2ccc(C(F)(F)F)cn2)CC1 (stereo not shown) [Example 1.225] | 100 to 10000
CC(=O)N[C@H]1CCCN(c2ccc(S(=O)(=O)N3CCC(Nc4ccc(C(F)(F)F)cn4)CC3)cc2)C1 [Example 1.193] | 100 to 10000
Nc1n[nH]c2ncc(-c3ccc(S(=O)(=O)N4CCC(Nc5ccc(C(F)(F)F)cn5)CC4)cc3)cc12 [Example 1.068] | < 5
N#Cc1cn(CCNC(N)=O)c2ncc(-c3ccc(S(=O)(=O)N4CCC(Nc5ccc(C(F)(F)F)cn5)CC4)cc3)cc12 [Example 1.003] | < 5
NC(=O)N1CCC12CN(c1ccc(S(=O)(=O)N3CCC(Nc4ccc(C(F)(F)F)cn4)CC3)cc1)C2 [Example 1.142] | 5 to 100
CC(C)(C)[Si](C)(C)OCCN1Cc2ccc(-c3ccc(S(=O)(=O)N4CCC(Nc5ccc(C(F)(F)F)cn5)CC4)cc3)cc2C1=O [Example 1.038] | 5 to 100
N=[S@](=O)(c1ccc(-c2ccc3oc(N)nc3c2)cc1)N1CCC(Nc2ccc(C(F)(F)F)cn2)CC1 [Example 1.116] | 5 to 100
NC(=O)CC1CCN(c2ccc(S(=O)(=O)N3CCC(Nc4ccc(C(F)(F)F)cn4)CC3)cc2)CC1 [Example 1.155] | < 5
O=C1NS(=O)(=O)c2ccc(-c3ccc(S(=O)(=O)N4CCC(Nc5ccc(C(F)(F)F)cn5)CC4)cc3)cc21 [Example 1.063] | 5 to 100

Reference: US12012403B2, “Aryl sulfonyl compounds as CCR6 inhibitors” (CHEMOCENTRYX, INC., priority 2021, dated 2024)
